Measured values from patent US20230322789A1, “PYRAZOLOPYRIDAZINONE COMPOUND, AND PHARMACEUTICAL COMPOSITION AND USE THEREOF” (BroadenBio Co., Ltd., priority 2020, published 2023).
Structures can show the parent of a compound that is named as a salt.

Legend:
HPK1 = HPK1 (Homo sapiens (Human), UniProt Q92918); test: HPK1 kinase activity inhibition test (ADP-Glo, luminescence); format: biochemical; conditions: HPK1 5 nM, ATP 2 μM, read-out: IC50, inhibitory effects of compounds on HPK1 kinase activity
Sequence of HPK1 (Q92918 whole entry): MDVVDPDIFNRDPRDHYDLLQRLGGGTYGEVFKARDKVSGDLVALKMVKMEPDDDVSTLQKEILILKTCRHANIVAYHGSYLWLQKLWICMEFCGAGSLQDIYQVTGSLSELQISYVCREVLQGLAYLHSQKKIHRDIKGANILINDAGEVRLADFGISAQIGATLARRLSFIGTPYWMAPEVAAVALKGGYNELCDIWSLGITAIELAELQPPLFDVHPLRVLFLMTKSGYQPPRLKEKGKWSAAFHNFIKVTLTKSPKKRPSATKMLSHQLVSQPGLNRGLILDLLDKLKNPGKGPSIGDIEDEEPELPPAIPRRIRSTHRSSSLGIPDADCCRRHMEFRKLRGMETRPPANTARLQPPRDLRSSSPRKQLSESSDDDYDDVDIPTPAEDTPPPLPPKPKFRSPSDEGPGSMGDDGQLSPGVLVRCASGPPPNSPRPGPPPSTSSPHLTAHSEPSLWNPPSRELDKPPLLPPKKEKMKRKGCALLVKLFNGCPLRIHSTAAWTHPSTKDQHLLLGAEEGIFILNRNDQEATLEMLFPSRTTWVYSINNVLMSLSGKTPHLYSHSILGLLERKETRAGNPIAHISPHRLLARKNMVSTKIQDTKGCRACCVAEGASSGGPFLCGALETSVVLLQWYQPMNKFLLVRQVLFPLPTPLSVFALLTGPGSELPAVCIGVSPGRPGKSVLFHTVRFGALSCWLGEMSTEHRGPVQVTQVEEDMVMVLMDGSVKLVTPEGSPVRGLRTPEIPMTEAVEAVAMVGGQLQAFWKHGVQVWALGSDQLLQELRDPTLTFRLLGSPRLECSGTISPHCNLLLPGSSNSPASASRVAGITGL
In short: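 HPK1 autophosphorylation was run without added substrate. Kinase and compound were preincubated 10 min at 25° C., then ATP was added for 60 min at 25° C. ADP formed was detected by ADP-Glo luminescence, and IC50 was taken from a four-parameter nonlinear fit.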

Human Jurkat-E6-1 cells = test: Measurement of IL-2 secretion of Jurkat cells by ELISA; format: cell-based; conditions: Homo sapiens, Jurkat E6.1, anti-CD3/anti-CD28 stimulation 24 hours, read-out: Percentage of the amount of IL-2 secreted from compound treated/DMSO-treated cells; for activity at 3 µM: test compound 3.0 μM; for activity at 1 µM: test compound 1.0 μM
Method: 2. Measurement of IL-2 Secretion of Jurkat Cells by ELISA
Human Jurkat-E6-1 cells were incubated with various concentrations of test compounds for 30 minutes in a humidified incubator at 37° C. and […]. Cells were transferred to cell culture plates pre-coated with anti-human CD3 antibody, then soluble anti-human CD28 antibody was added, and cells were stimulated for 24 hours at 37° C. and 5% CO2 in a humidified incubator. The cell culture medium was collected by centrifugation, and was then transferred to a 96-well transparent microtiter plate (Thermo) pre-coated with anti-human IL-2 antibody, incubated at room temperature for 2 hours, and gently shaken, washed with washing buffer for 4 times, and then followed the ELISA MAX Deluxe Set Human IL-2 (BioLegend) kit procedure, used a microplate reader (Molecular Device, i3X) to read the GD value. The best standard curve was selected by the microplate reader application software, and the corresponding concentration was calculated according to the GD value of the standard. Results are expressed as a percentage of the amount of IL-2 secreted from compound-treated/DMSO-treated cells.

Row | Compound | IC50 (HPK1) | activity at 3 µM (Human Jurkat-E6-1 cells) | activity at 1 µM (Human Jurkat-E6-1 cells)
1 | COc1ccncc1-n1nc2c(-c3ccc(C4=CCN(C)CC4)cc3)n[nH]c2cc1=O [Compound 151, 5-(4-methoxypyrid-3-yl)-3-(4-(1-methyl-1,2,3,6-tetrahydropyridin-4-yl)phenyl)-1H-pyrazolo[4,3-c]pyridazin-6(5H)-one] | 50 to 500 nM | 230% | –
2 | CN1CCN(c2ccc(-c3n[nH]c4cc(=O)n(-c5ccccc5Cl)nc34)cc2)CC1 [Compound 7, 5-(2-chlorophenyl)-3-(4-(4-methylpiperazin-1-yl)phenyl)-1H-pyrazolo[4,3-c]pyridazin-6(5H)-one] | 50 to 500 nM | – | 314%
3 | COc1cccc(F)c1-n1nc2c(-c3ccc(N4CCN(C)C(C(C)(C)OC)C4)cc3)n[nH]c2cc1=O (stereo not shown) [Compound 127, 5-(2-fluoro-6-methoxyphenyl)-3-(4-(3-(2-methoxyprop-2-yl)-4-methylpiperazin-1-yl)phenyl)-1H-pyrazolo[4,3-c]pyridazin-6(5H)-one] | ≤ 50 nM | 758% | –
4 | COc1cccc(F)c1-n1nc2c(-c3cnc(N4CCN(C)CC4)nc3)n[nH]c2cc1=O [Compound 28, 5-(2-fluoro-6-methoxyphenyl)-3-(2-(4-methylpiperazin-1-yl)pyrimidin-5-yl)-1H-pyrazolo[4,3-c]pyridazin-6(5H)-one] | ≤ 50 nM | – | 302%
5 | COc1cccc(F)c1-n1nc2c(-c3cnn(C4CCN(C)CC4)c3)n[nH]c2cc1=O [Compound 20] | 50 to 500 nM | – | 329%
6 | Cc1cccc(F)c1-n1nc2c(-c3ccc4c(c3)CN(C3CNC3)CC4)n[nH]c2cc1=O [Compound 164, 3-(2-(azetidin-3-yl)-1,2,3,4-tetrahydroisoquinolin-7-yl)-5-(2-fluoro-6-methylphenyl)-1H-pyrazolo[4,3-c]pyridazin-6(5H)-one hydrochloride] | 50 to 500 nM | 159% | –
7 | COc1cc(C#N)cc(F)c1-n1nc2c(-c3ccc(N4CCN(C)CC4)cc3)n[nH]c2cc1=O [Compound 74, 3-fluoro-5-methoxy-4-(3-(4-(4-methylpiperazin-1-yl)phenyl)-6-oxo-1H-pyrazolo[4,3-c]pyridazin-5(6H)-yl)benzonitrile] | ≤ 50 nM | 411% | –
8 | COc1cccc(F)c1-n1nc2c(-c3cnc(N4CCOCC4)s3)n[nH]c2cc1=O [Compound 148] | ≤ 50 nM | – | 531%
9 | Cc1cccc(F)c1-n1nc2c(-c3ccc(N4CCn5ccnc5C4)cc3)n[nH]c2cc1=O [Compound 137, 3-(4-(5,6-dihydroimidazolo[1,2-a]pyrazin-7(8H)-yl)phenyl)-5-(2-fluoro-6-methylphenyl)-1H-pyrazolo[4,3-c]pyridazin-6(5H)-one] | ≤ 50 nM | 291% | –
10 | CNC(=O)c1cc(F)c(-n2nc3c(-c4ccc(N5CCN(C)CC5)cc4)n[nH]c3cc2=O)c(OC)c1 [Compound 79, 3-fluoro-5-methoxy-N-methyl-4-(3-(4-(4-methylpiperazin-1-yl)phenyl)-6-oxo-1H-pyrazolo[4,3-c]pyridazin-5(6H)-yl)benzamide] | ≤ 50 nM | 361% | –
11 | CCc1cccc(F)c1-n1nc2c(-c3ccc4c(c3)CN(C)CC4)n[nH]c2cc1=O [Compound 160, 5-(2-ethyl-6-fluorophenyl)-3-(2-methyl-1,2,3,4-tetrahydroisoquinolin-7-yl)-1H-pyrazolo[4,3-c]pyridazin-6(5H)-one] | ≤ 50 nM | 354% | –
12 | Cc1cccc(F)c1-n1nc2c(-c3ccc(N4CCN(C)C(CO)C4)cc3)n[nH]c2cc1=O (stereo not shown) [Compound 120, 5-(2-fluoro-6-methylphenyl)-3-(4-(3-(hydroxymethyl)-4-methylpiperazin-1-yl)phenyl)-1H-pyrazolo[4,3-c]pyridazin-6(5H)-one] | ≤ 50 nM | 482% | –
13 | Cc1cccc(F)c1-n1nc2c(-c3ccc(N4CCN(C)C(C)(C)C4)cc3)n[nH]c2cc1=O [Compound 89, 5-(2-fluoro-6-methylphenyl)-3-(4-(3,3,4-trimethylpiperazin-1-yl)phenyl)-1H-pyrazolo[4,3-c]pyridazin-6(5H)-one] | ≤ 50 nM | 689% | –
14 | Cc1cccc(F)c1-n1nc2c(-c3ccc4c(c3)CN(C3CC(N)C3)CC4)n[nH]c2cc1=O (stereo not shown) [Compound 163] | 50 to 500 nM | 117% | –
15 | Cc1cccc(F)c1-n1nc2c(-c3ccc(N4CCN(C)C(CO)C4)nc3)n[nH]c2cc1=O (stereo not shown) [Compound 128, 5-(2-fluoro-6-methylphenyl)-3-(6-(3-(hydroxymethyl)-4-methylpiperazin-1-yl)pyrid-3-yl)-1H-pyrazolo[4,3-c]pyridazin-6(5H)-one] | ≤ 50 nM | 472% | –
16 | Cc1cccc(F)c1-n1nc2c(-c3ccc(N4CC5CCC(C4)N5C)nc3)n[nH]c2cc1=O [Compound 109, 5-(2-fluoro-6-methylphenyl)-3-(6-(8-methyl-3,8-diazabicyclo[3.2.1]octan-3-yl)pyrid-3-yl)-1H-pyrazolo[4,3-c]pyridazin-6(5H)-one] | ≤ 50 nM | 491% | –
17 | Cc1cccc(F)c1-n1nc2c(-c3ccc(N4CCN(CCO)CC4)nc3)n[nH]c2cc1=O [Compound 118, 5-(2-fluoro-6-methylphenyl)-3-(6-(4-(2-hydroxyethyl)piperazin-1-yl)pyrid-3-yl)-1H-pyrazolo[4,3-c]pyridazin-6(5H)-one] | ≤ 50 nM | 550% | –
18 | Cc1cccc(F)c1-n1nc2c(-c3cccc(N4CCN(C)CC4)c3)n[nH]c2cc1=O [Compound 198, 5-(2-fluoro-6-methylphenyl)-3-(3-(4-methylpiperazin-1-yl)phenyl)-1H-pyrazolo[4,3-c]pyridazin-6(5H)-one] | ≤ 50 nM | 280% | –
19 | Cc1cccc(F)c1-n1nc2c(-c3ccc(N4CCN(C)CC4)c(F)c3)n[nH]c2cc1=O [Compound 94] | ≤ 50 nM | 414% | –
20 | COc1cccc(F)c1-n1nc2c(-c3ccc(N4CCC(C)(N(C)C)CC4)cc3)n[nH]c2cc1=O [Compound 147, 3-(4-(4-(dimethylamino)-4-methylpiperidin-1-yl)phenyl)-5-(2-fluoro-6-methoxyphenyl)-1H-pyrazolo[4,3-c]pyridazin-6(5H)-one] | ≤ 50 nM | 616% | –
21 | COc1ccc(-n2nc3c(-c4ccc(N5CCN(C)CC5)cc4)n[nH]c3cc2=O)c(OC)c1 [Compound 25, 5-(2,4-dimethoxyphenyl)-3-(4-(4-methylpiperazin-1-yl)phenyl)-1H-pyrazolo[4,3-c]pyridazin-6(5H)-one] | 50 to 500 nM | – | 187%
22 | Cc1cccc(F)c1-n1nc2c(-c3ccc(N4CC5CCC(C4)N5C)cc3)n[nH]c2cc1=O [Compound 61, 5-(2-fluoro-6-methylphenyl)-3-(4-(8-methyl-3,8-diazabicyclo[3.2.1]octan-3-yl)phenyl)-1H-pyrazolo[4,3-c]pyridazin-6(5H)-one] | ≤ 50 nM | 635% | –
23 | COc1cccc(F)c1-n1nc2c(-c3ccc(N4CCC(C)(O)CC4)cc3)n[nH]c2cc1=O [Compound 140, 5-(2-fluoro-6-methoxyphenyl)-3-(4-(4-hydroxyl-4-methylpiperidin-1-yl)phenyl)-1H-pyrazolo[4,3-c]pyridazin-6(5H)-one] | ≤ 50 nM | 436% | –
24 | CN1CCN(c2ccc(-c3n[nH]c4cc(=O)n(-c5ccccc5F)nc34)cc2)CC1 [Compound 6, 5-(2-fluorophenyl)-3-(4-(4-methylpiperazin-1-yl)phenyl)-1H-pyrazolo[4,3-c]pyridazin-6(5H)-one] | ≤ 50 nM | – | 185%
25 | Cc1cc(C#N)cc(F)c1-n1nc2c(-c3ccc(N4CCN(C(=O)[C@H](C)N)CC4)cc3)n[nH]c2cc1=O [Compound 82] | ≤ 50 nM | 195% | –
26 | Cc1cccc(F)c1-n1nc2c(-c3ccc(N4CC5CCC(C4)N5CCO)cc3)n[nH]c2cc1=O [Compound 117, 5-(2-fluoro-6-methylphenyl)-3-(4-(8-(2-hydroxyethyl)-3,8-diazabicyclo[3.2.1]octan-3-yl)phenyl)-1H-pyrazolo[4,3-c]pyridazin-6(5H)-one] | ≤ 50 nM | 566% | –
27 | COc1cccc(F)c1-n1nc2c(-c3ccc(N4CCN5CCOC[C@H]5C4)cc3)n[nH]c2cc1=O [Compound 136, (R)-5-(2-fluoro-6-methoxyphenyl)-3-(4-(hexahydropyrazino[2,1-c][1,4]oxazin-8(1H)-yl)phenyl)-1H-pyrazolo[4,3-c]pyridazin-6(5H)-one] | ≤ 50 nM | 702% | –
28 | COc1cccc(F)c1-n1nc2c(-c3ccc(N4CCN(C)C(=O)C4)cc3)n[nH]c2cc1=O [Compound 33, 5-(2-fluoro-6-methoxyphenyl)-3-(4-(4-methyl-3-oxo-piperazin-1-yl)phenyl)-1H-pyrazolo [4,3-c]pyridazin-6(5H)-one] | ≤ 50 nM | – | 631%
29 | COc1cc(N2CCN(C)CC2)ccc1-c1n[nH]c2cc(=O)n(-c3c(C)cccc3F)nc12 [Compound 16, 5-(2-fluoro-6-methylphenyl)-3-(2-methoxy-4-(4-methylpiperazin-1-yl)phenyl)-1H-pyrazolo[4,3-c]pyridazin-6(5H)-one] | 500 to 2000 nM | – | 156%
